# What was measured:
# [1] = Menstrual cycle trend (frequency of the period); type: in vivo; conditions: before the treatment, same group of women with PCOS
# From the text: (§1) The women were divided into 3 groups, each group received the treatment according to the following scheme: • Group A: 20 women treated with 1.5 g of myo-inositol + 2 g of glucomannan, twicea day for 3 months, administered half an hour before meals; • Group B: 10 women treated with 1.5 g myo-inositol, twice a day for 3 months, administered half an hour before meals; • Group C: 10 women treated with a dose of 2 g of glucomannan, twice a day for 3 months, adminisered with main meals.
# (§2) In addition to the assessment of blood glucose and insulin levels during OGTT, the menstrual cycle trend has been evaluated in all the women: the 3rd month of treatment at the 22nd day of the menstrual cycle a progesterone dosage was performed and, after 3 months of treatment, an evaluation of acne, hirsutism and body mass index was performed.
# [2] = OGTT (oral glucose tolerance test): blood glucose levels; type: in vivo; conditions: OGTT 75 g, women with PCOS, treatment twice a day for 3 months
# Protocol: (§3) In order to evaluate the effectiveness of this new combination of inositol and glucomannan on blood glucose levels and insulin at baseline and after glucose load curve, it was evaluated the effect in 20 women affected by insulin resistance PCOS and compared with what determined in 2 groups of 10 women each, treated with myo-inositol and glucomannan individually administered.
# as §1
# (§4) In order to determine blood glucose and insulin levels in all samples, OGTT (oral glucose tolerance test) was performed in all women in the early follicular phase of the spontaneous period, or after a progestin-induced, period before starting the treatment and after three months of treatment ([…]) .
# [3] = Plasma progesterone at the 22nd day of the period; type: in vivo, women
# From the text: as §1, §2
# [4] = OGTT (oral glucose tolerance test): insulin levels; type: in vivo; set-up: unit not given beside the values; conditions: OGTT 75 g, women with PCOS, treatment twice a day for 3 months
# Protocol: as §3, §1, §4
# [5] = Body mass index evaluation; type: in vivo, women
# From the text: as §1, §2
# [6] = before treatment, same group of women with PCOS
structure (smiles),measurement,setting,value
O[C@H]1[C@H](O)[C@@H](O)[C@H](O)[C@@H](O)[C@H]1O [myo-inositol],frequency of the period,[1],38 to 42 days
same,blood glucose levels,[2]; time 0,90±4.71
same,blood glucose levels,[2]; time 30',130.8±6.56
same,blood glucose levels,[2]; time 90',107.2±10.25
same,blood glucose levels,[2]; time 120',98±6.92
same,blood glucose levels,[2]; time 180',91.1±6.15
same,plasma progesterone,[3]; 22nd day of the period during the 3rd month of treatment,4.2 ± 0.6 ng/mL
same,plasma progesterone,[3]; [6],2.2 ± 0.2 ng/mL
same,insulin levels,[4]; time 0,7.6+1.
same,insulin levels,[4]; time 60',57.5±7.13
same,insulin levels,[4]; time 90',48.4±4.81
same,insulin levels,[4]; time 120',40.7±5.57
same,insulin levels,[4]; time 180',34±4.89
same,body mass index,[5]; at the 3rd month of treatment,25 ± 1.3
same,body mass index,[5]; [6],27 ± 0.6
